Key:
[1] = test system: KLF15 promoter (pEZX-FR03hKLF15p human podocytes); assay: KLF15 reporter high-throughput screening assay in human podocytes (firefly/renilla luciferase); format: cell-based
Procedure: Briefly, these podocytes proliferate under permissive conditions (gamma interferon at 33° C.), but differentiate under nonpermissive conditions (37° C.).
The amplified fragment contains MluI and PmeI RE sites and was subcloned into the MluI and PmeI cloning site of the pEZX-FR03 Firefly luciferase (FLuc) and Renilla luciferase (Rluc) reporter cloning vector (GeneCopoeia) to generate pEZX-FR03hKLF15p. Following verification of the sequence by restriction and μsequencing, the pEZX-FR03hKLF15p construct (which contains a puromycin resistance cassette) was transfected into human podocytes followed by selection in puromycin-containing media for 2 weeks. Surviving podocytes clones were pooled together for further analysis.
The library of compounds from the National Cancer Institute (Approved Oncology Drugs Set VI; Natural Products Set III; Diversity Set V; and Mechanistic Diversity Set II) were added to a final concentration of 1 μM in 0.5% DMSO in the low FBS cell culture media (0.2% FBS) using liquid handling system PipetMax (Gilson). After 24 hours incubation at 37° C., the Luc-Pair™ Duo-Luciferase HT Assay Kit (GeneCopoeia LF015) were used and firefly and renilla luciferase activity was determined using the SpectraMax M3 (Molecular Devices). Positive controls were all-trans retinoic acid (atRA) (1 μM) and dexamethasone (DEX) (1 μM). Negative controls were DMSO and cell-free media.
To identify small molecule inducers of KLF15 expression in human podocytes, human podocytes were generated with a dual reporter, firefly luciferase directed at the KLF15 promoter region and renilla luciferase (pEZX-FR03hKLF15p). […] The positive controls were inducers of KLF15 expression, dexamethasone (DEX) and all-trans retinoic acid (atRA), and […] and cell-free wells served as negative controls.

[2] = test system: NF-κB signaling (p50, p65, IκBα)
Excerpt: Differentiated human podocytes were lysed with a fractionation buffer containing 1× protease and phosphatase inhibitor cocktail (Thermo Fisher Scientific) and separate cytoplasmic and nuclear fractions using a modified procedure described before (72).

[3] = test system: differentiated human podocytes; assay: RNA sequencing and enrichment analysis of BT503-treated podocytes; format: cell-based; conditions: vs DMSO in the setting of LPS treatment
Excerpt: RNA sequencing data was processed as previously described (Z. Wang, A. Ma'ayan, (2016) F1000Res 5, 1574). Briefly, sequencing reads were first aligned to the human genome (version hg38) using Spliced Transcripts Alignment to a Reference (STAR 2.4.1c) (A. Dobin et al., (2013) Bioinformatics 29, 15-21). Aligned reads were then quantified to the transcriptome (UCSC hg38 annotation) at the gene level using featureCounts (v1.4.6) (Y. Liao, G. K. Smyth, W. Shi, (2014) Bioinformatics 30, 923-930). Read counts were normalized to count per million (CPM), and differentially expressed genes were identified using BioJupies (A. Lachmann et al., (2018) Nat Commun 9, 1366). Enrichment analyses of the differentially expressed genes were performed with Enrichr (33, 66) with WikiPathways (D. N. Slenter et al., (2018) Nucleic Acids Res 46, D661-d667) and KEGG (M. Kanehisa, S. Goto, (2000) Nucleic Acids Res 28, 27-30) databases. Normalized read counts were used to create matrix visualized heat maps on Morpheus by Broad Institute (https://software.broadinstitute.org/morpheus) with hierarchical clustering, sorted by one minus Pearson's correlation and clustered by rows. […]

IKBKB^M96V mutant = IKBKB^M96V mutant (Homo sapiens, UniProt O14920, M96V)
Procedure: After the kinase reaction, an equal volume of ADP-Go™ Reagent is added to both terminate the kinase reaction and deplete the remaining ATP. Subsequently, the Detection Reagent is added to simultaneously convert ADP to ATP and measure the concentrations of newly synthesized ATP using a luciferase/luciferin reaction. The light generated is measured using a 96-well plate reader SpectraMax M3 (Molecular Devices). Luminescence can be correlated to ADP concentrations by using an ATP-to-ADP conversion curve.

[4] = test system: differentiated human podocytes; assay: Oxygen consumption rate and extracellular acidification rate (Seahorse XFe96); format: cell-based
Procedure: Subsequently, basal OCR, maximal respiration, ATP-linked respiration, and spare respiratory capacity were determined in the presence of oligomycin, carbonyl cyanide-p-trifluoromethoxyphenylhydrazone (FCCP), and rotenone/antimycin A. All OCR measurements were normalized for the number of cells per well using CyQuant reagent (Life Technologies).

[5] = biological target: hERG Human Potassium Ion Channel (Homo sapiens, UniProt Q12809); assay: hERG Human Potassium Ion Channel Cell Based QPatch CiPA Assay
Excerpt: A 500 ms pulse to −40 mV is delivered to measure the leaking current, which is subtracted from the tail current on-line. The cell is subsequently depolarized to +40 mV for 500 ms and then to −80 mV over a 100 ms ramp to elicit the hERG tail current. The parameters measured were the maximum tail current evoked on stepping to 40 mV and ramping back to −80 mV from the test pulse. All data were filtered for seal quality, seal drop, and current amplitude.

[6] = test system: KLF15 promoter (pEZX-FR03hKLF5p human podocytes); assay: Lipopolysaccharide treatment in human podocytes, KLF15 reporter activity; format: cell-based; conditions: as compared to DMSO
Procedure: Differentiated pEZX-FR03hKLF5p human podocytes were treated with 25 μg/ml lipopolysaccharide (LPS) or vehicle and 1 μM KLF15 agonist or vehicle control for 24 hours. Firefly and renilla luciferase assay were measured initially to determine relative KLF15 reporter activity.

Chain of hERG Human Potassium Ion Channel (Q12809 whole entry): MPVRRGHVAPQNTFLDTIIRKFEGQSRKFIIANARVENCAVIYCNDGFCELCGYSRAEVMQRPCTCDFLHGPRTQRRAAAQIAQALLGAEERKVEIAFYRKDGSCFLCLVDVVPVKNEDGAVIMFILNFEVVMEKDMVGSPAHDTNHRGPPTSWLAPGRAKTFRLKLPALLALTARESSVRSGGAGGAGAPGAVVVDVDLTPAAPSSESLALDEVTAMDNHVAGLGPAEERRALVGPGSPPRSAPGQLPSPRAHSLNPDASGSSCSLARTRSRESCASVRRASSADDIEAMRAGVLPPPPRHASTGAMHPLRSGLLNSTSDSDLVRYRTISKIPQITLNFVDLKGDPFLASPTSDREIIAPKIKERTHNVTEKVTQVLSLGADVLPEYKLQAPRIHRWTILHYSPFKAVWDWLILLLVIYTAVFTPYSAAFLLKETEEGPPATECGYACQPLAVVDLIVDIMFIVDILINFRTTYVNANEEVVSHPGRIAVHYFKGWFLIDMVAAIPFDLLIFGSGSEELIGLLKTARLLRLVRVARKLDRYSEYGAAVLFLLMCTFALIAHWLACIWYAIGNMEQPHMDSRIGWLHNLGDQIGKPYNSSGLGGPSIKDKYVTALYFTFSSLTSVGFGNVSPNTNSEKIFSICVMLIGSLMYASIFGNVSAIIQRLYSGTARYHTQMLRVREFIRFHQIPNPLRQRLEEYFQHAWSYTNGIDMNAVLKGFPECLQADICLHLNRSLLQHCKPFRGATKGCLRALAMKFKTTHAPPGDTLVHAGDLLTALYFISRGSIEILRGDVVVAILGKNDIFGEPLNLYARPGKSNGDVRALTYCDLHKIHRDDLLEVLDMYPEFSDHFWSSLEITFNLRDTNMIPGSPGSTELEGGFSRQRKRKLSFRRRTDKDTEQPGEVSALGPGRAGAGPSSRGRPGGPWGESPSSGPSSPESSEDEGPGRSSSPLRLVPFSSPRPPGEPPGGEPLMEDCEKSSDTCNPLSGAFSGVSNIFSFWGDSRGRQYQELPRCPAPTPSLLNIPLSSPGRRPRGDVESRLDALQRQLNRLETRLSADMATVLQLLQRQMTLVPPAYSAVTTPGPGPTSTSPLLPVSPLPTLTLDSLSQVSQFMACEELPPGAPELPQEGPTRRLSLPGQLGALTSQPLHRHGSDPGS
Chain of IKBKB^M96V mutant (O14920 whole entry M96V): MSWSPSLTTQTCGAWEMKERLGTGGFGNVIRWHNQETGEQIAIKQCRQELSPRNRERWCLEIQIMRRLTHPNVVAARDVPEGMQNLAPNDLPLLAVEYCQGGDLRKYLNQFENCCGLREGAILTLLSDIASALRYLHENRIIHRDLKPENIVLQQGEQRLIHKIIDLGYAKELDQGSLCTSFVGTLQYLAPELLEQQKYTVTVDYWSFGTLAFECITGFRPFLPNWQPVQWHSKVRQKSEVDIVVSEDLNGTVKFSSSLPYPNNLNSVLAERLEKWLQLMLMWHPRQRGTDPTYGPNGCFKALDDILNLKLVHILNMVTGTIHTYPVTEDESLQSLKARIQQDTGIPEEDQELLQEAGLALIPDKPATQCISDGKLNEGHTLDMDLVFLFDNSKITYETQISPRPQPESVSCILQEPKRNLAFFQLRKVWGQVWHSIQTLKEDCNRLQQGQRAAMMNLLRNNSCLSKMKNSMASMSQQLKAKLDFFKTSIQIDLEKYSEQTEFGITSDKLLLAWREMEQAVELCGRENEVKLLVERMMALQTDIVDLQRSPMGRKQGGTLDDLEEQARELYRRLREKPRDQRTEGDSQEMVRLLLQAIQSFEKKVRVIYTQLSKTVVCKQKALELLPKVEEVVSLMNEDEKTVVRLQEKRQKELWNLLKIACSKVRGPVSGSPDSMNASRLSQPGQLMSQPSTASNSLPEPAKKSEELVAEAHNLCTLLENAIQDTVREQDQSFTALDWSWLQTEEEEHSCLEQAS

Structure (SMILES): CSc1ccc(NC(=O)Nc2ccc(C)nc2)cc1 [BT503]
- KLF15 activity as compared to DEX-treated podocytes [1]: higher KLF15 activity
- KLF15 activity under nonpermissive versus permissive conditions ([1]; 37 C vs 33 C): only induces KLF15 activity under nonpermissive (37 C) conditions
- nuclear localization of p50 and p65 ([2]; LPS-treated podocytes): mitigated this translocation
- IκBα expression ([2]; vs DMSO in the setting of LPS treatment): significantly increased
- DEGs involved in NF-κB signaling (GSEA, heatmap) [3]: downregulation
- IKKβ kinase inhibition in IKBKB^M96V mutant as compared to IKBKB^WT (IKBKB^M96V mutant): resistance to IKKβ kinase inhibition
- basal respiration, maximal respiration, ATP-linked respiration, and spare respiratory capacity ([4]; 3-10 μM): No significant differences
- oxygen consumption rate (OCR) and extracellular acidification rate (ECAR) ([4]; as compared to DMSO or DEX): no significant differences
- % inhibition mean ([5]; 3 μM): 1.20%
- % inhibition n1 ([5]; 3 μM): −2.01%
- % inhibition n2 ([5]; 3 μM): 4.41%
- % inhibition mean ([5]; 10 μM): 6.25%
- % inhibition n1 ([5]; 10 μM): −0.08%
- % inhibition n2 ([5]; 10 μM): 12.57%
- hERG inhibition ([5]; 3-10 μM, as compared to positive control): low inhibition
- KLF15 activity in the setting of LPS treatment [6]: maintained the elevated KLF15 activity

Source: US20250186411A1, “Methods of Treating Disorders Associated with Overactivation of IKKB” (The United States Government as represented by the …, priority 2023, published 2025)
